Results: patent US20110045101A1, “FUNGICIDAL SUBSTITUTED AZOLES” (E.I. Du Pont De Nemours and Company, priority 2009, published 2011)
Marks after values point to notes of the source that are not given here.

Columns and labels:
Assay type in all cases: in vivo
Conditions in all cases: 100 = 100% disease control
[1] = system: Erysiphe graminis f. sp. tritici; experiment: Test J: wheat powdery mildew on wheat seedlings, sprayed the day before inoculation, visual disease rating
Method in brief: (§1)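 Test rate was 200 ppm, sprayed to run-off and equal to 500 g/ha, or 40 ppm where marked. The compound was first taken up in acetone at 3% of final volume and suspended in acetone/purified water (50/50) containing 250 ppm Trem® 014.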

[2] = system: Alternaria solani; experiment: Test D: tomato early blight, sprayed the day before inoculation, visual disease rating
Method in brief: as §1

[3] = system: Septoria nodorum; experiment: Test F: wheat glume blotch on wheat seedlings, sprayed the day before inoculation, visual disease rating
Method in brief: as §1

[4] = system: Puccinia recondita f. sp. tritici; experiment: Test H: wheat leaf rust, test suspension sprayed after inoculation of wheat seedlings, visual disease rating
Method in brief: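 Wheat seedlings inoculated with P. recondita spores, held 24 h saturated at 20 °C, then 2 days in growth chamber at 20 °C; compound suspension (acetone/water with Trem 014) sprayed to run-off afterwards. Rated visually; 200 ppm (≈500 g/ha) unless marked *, which denotes 40 ppm.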

[5] = system: Septoria tritici; experiment: Test G: wheat leaf blotch on wheat seedlings, sprayed the day before inoculation, visual disease rating
Method in brief: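 Disease was rated visually after Septoria tritici inoculation, 48 h saturated incubation at 24°C and 19 days in a 20°C growth chamber. Inoculation followed one day after run-off spraying of seedlings with compound at 200 ppm (≈500 g/ha) or, where marked, 40 ppm, formulated in acetone/water with surfactant.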

[6] = system: Puccinia recondita f. sp. tritici; experiment: Test I: wheat leaf rust on wheat seedlings, sprayed the day before inoculation, visual disease rating
Method in brief: as §1

[7] = system: Botrytis cinerea; experiment: Test C: tomato Botrytis on tomato seedlings, sprayed the day before inoculation, visual disease rating
Method in brief: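 Each compound is first taken up in acetone at 3% of the final volume and then brought to the desired ppm in a 50:50 acetone–water mix with 250 ppm surfactant (polyhydric alcohol esters). Tomato seedlings receive the suspension to run-off, normally at 200 ppm, occasionally 40 ppm.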

[8] = 200 ppm, 0 = no control relative to controls
[9] = 40 ppm (marked *), 0 = no control

SMILES | Test J disease control rating [1, 8] | Test D disease control rating [2, 8] | Test F disease control rating [3, 8] | Test H disease control rating [4, 8] | Test G disease control rating [5, 8] | Test I disease control rating [6, 8] | Test C disease control rating [7, 8] | other results
COc1cc(F)c(-c2c(Cl)nc(Br)n2-c2cccc(OC(F)(F)F)c2)c(F)c1 [compound 547] | 100% | 88% | 60% | 0% | 97% | 99% | 99% | 
Cc1nc(Cl)n(-c2ccc(Cl)c(F)c2)c1-c1sc(Cl)nc1Cl [compound 381] | 0% | 0% | 0% | 0% | 78% | 0% | 94% | 
Cc1ncc(Cc2c(F)cc(F)cc2F)n1-c1ccc(Cl)cc1 [compound 530] | 71% | 0% | 0% | 0% | 58% | 88% | 0% | 
COc1ccc(F)c(-c2c(C)nc(Cl)n2-c2ccc(Cl)cc2)c1F [compound 526] | 100% | 100% | 100% | 0% | 99% | 100% | 100% | 
CC(=O)Nc1ccc(-n2c(Cl)nc(Cl)c2-c2c(F)cccc2F)cc1 [compound 637] |  |  |  |  |  |  |  | Test J disease control rating ([1]; 40 ppm (marked *)): 0* %; Test D disease control rating ([2]; 40 ppm (marked *)): 0* %; Test F disease control rating ([3]; 40 ppm (marked *)): 0* %; Test H disease control rating ([4]; 40 ppm (marked *)): 0* %; Test G disease control rating ([5]; 40 ppm (marked *)): 92* %; Test I disease control rating ([6]; 40 ppm (marked *)): 65* %; Test C disease control rating ([7]; 40 ppm (marked *)): 97* %
Cc1ncn(-c2ccc(Cl)c(F)c2)c1-c1ccnc(Br)c1 [compound 345] | 0% | 0% | 0% | 0% | 27% | 0% | 64% | 
COc1ccc(F)c(-c2c(Cl)nc(Br)n2-c2cccc(C)c2)c1F [compound 316] | 100% | 99% | 95% | 6% | 93% | 99% | 99% | 
CC(=O)Nc1ccc(-n2c(Cl)nc(Cl)c2-c2c(F)cccc2F)cc1Cl [compound 636] |  |  |  |  |  |  |  | Test J disease control rating ([1]; 40 ppm (marked *)): 0* %; Test D disease control rating ([2]; 40 ppm (marked *)): 24* %; Test F disease control rating ([3]; 40 ppm (marked *)): 0* %; Test H disease control rating ([4]; 40 ppm (marked *)): 0* %; Test G disease control rating ([5]; 40 ppm (marked *)): 95* %; Test I disease control rating ([6]; 40 ppm (marked *)): 52* %; Test C disease control rating ([7]; 40 ppm (marked *)): 90* %
Fc1cccc(F)c1-c1c(Cl)nc(Br)n1-c1ccc2ncccc2c1 [compound 327] |  |  |  |  |  |  |  | Test J disease control rating [1, 9]: 0* %; Test D disease control rating [2, 9]: 98* %; Test F disease control rating [3, 9]: 0* %; Test H disease control rating [4, 9]: 0* %; Test G disease control rating [5, 9]: 94* %; Test I disease control rating [6, 9]: 86* %; Test C disease control rating [7, 9]: 99* %
COc1cc(F)c(-c2c(Cl)ncn2-c2cccc(Cl)c2)c(F)c1 [compound 497] | 100% | 99% | 100% | 0% | 97% | 100% | 97% | 
COc1cc(F)c(-n2c(Cl)nc(C)c2-c2ccc(Cl)cc2)c(F)c1 [compound 396] |  |  |  |  |  |  |  | Test J disease control rating [1, 9]: 99* %; Test D disease control rating [2, 9]: 100* %; Test F disease control rating [3, 9]: 99* %; Test H disease control rating [4, 9]: 0* %; Test G disease control rating [5, 9]: 93* %; Test I disease control rating [6, 9]: 100* %; Test C disease control rating [7, 9]: 100* %
Fc1ccc(F)c(-c2c(Br)nc(Br)n2-c2ccc(Cl)cc2)c1F [compound 383] |  |  |  |  |  |  |  | Test J disease control rating [1, 9]: 98* %; Test D disease control rating [2, 9]: 99* %; Test F disease control rating [3, 9]: 35* %; Test H disease control rating [4, 9]: 0* %; Test G disease control rating [5, 9]: 96* %; Test I disease control rating [6, 9]: 91* %; Test C disease control rating [7, 9]: 100* %
Clc1ccc(-c2c(Cl)ncn2Cc2cccc(Cl)c2)cc1 [compound 272] |  |  |  |  |  |  |  | Test J disease control rating ([1]; 200 ppm, 0 = no control): 0%; Test D disease control rating ([2]; 200 ppm, 0 = no control): 0%; Test F disease control rating ([3]; 200 ppm, 0 = no control): 0%; Test H disease control rating ([4]; 200 ppm, 0 = no control): 17%; Test G disease control rating ([5]; 200 ppm, 0 = no control): 91%; Test I disease control rating ([6]; 200 ppm, 0 = no control): 55%; Test C disease control rating ([7]; 200 ppm, 0 = no control): 64%
COc1ccc(F)c(-c2c(Cl)nc(Br)n2-c2ccc(Cl)cc2)c1Cl [compound 501] | 99% | 99% | 98% | 0% | 95% | 67% | 98% | 
Fc1cc(-n2c(Br)nc(Br)c2-c2c(F)ccc(F)c2Cl)ccc1Cl [compound 459] |  |  |  |  |  |  |  | Test J disease control rating ([1]; 40 ppm (marked *)): 98* %; Test D disease control rating ([2]; 40 ppm (marked *)): 63* %; Test F disease control rating ([3]; 40 ppm (marked *)): 0* %; Test H disease control rating ([4]; 40 ppm (marked *)): 9* %; Test G disease control rating ([5]; 40 ppm (marked *)): 95* %; Test I disease control rating ([6]; 40 ppm (marked *)): 98* %; Test C disease control rating ([7]; 40 ppm (marked *)): 99* %
Fc1cc(F)c(-c2c(Cl)nc(Cl)n2-c2ccc(OC(F)F)cc2)c(F)c1 [compound 598] | 100% | 100% | 100% | 99% | 99% | 100% | 100% | 
Cc1nc(C)n(-c2ccc(F)cc2)c1-c1c(F)cc(F)cc1F [compound 491] |  |  |  |  |  |  |  | Test J disease control rating ([1]; 40 ppm (marked *)): 0* %; Test D disease control rating ([2]; 40 ppm (marked *)): 99* %; Test F disease control rating ([3]; 40 ppm (marked *)): 0* %; Test H disease control rating ([4]; 40 ppm (marked *)): 0* %; Test G disease control rating ([5]; 40 ppm (marked *)): 91* %; Test I disease control rating ([6]; 40 ppm (marked *)): 0* %; Test C disease control rating ([7]; 40 ppm (marked *)): 92* %
Clc1ccc(-c2c(Cl)nc(Br)n2Cc2cccc(Cl)c2)cc1 [compound 290] |  |  |  |  |  |  |  | Test J disease control rating ([1]; 200 ppm, 0 = no control): 0%; Test D disease control rating ([2]; 200 ppm, 0 = no control): 0%; Test F disease control rating ([3]; 200 ppm, 0 = no control): 0%; Test H disease control rating ([4]; 200 ppm, 0 = no control): 11%; Test G disease control rating ([5]; 200 ppm, 0 = no control): 85%; Test I disease control rating ([6]; 200 ppm, 0 = no control): 19%; Test C disease control rating ([7]; 200 ppm, 0 = no control): 95%
COc1cc(F)c(-c2c(Cl)nc(Br)n2-c2ccc(OC)nc2)c(F)c1 [compound 705] | 100% | 100% | 99% | 100% | 99% | 100% | 99% | 
COc1cc(F)c(-c2c(Cl)nc(Cl)n2-c2cccc(OC(F)(F)F)c2)c(F)c1 [compound 567] | 100% | 67% | 0% | 7% | 94% | 99% | 99% | 
